Measured values from US9783495B2, “Treatment for lipodystrophy” (Cadila Healthcare Limited, priority 2011, dated 2017).

How the values were obtained:
[1] = system: subjects with hypertriglyceridemia in HIV associated lipodystrophy; assay: Prospective, multi-centric, open-label, single arm study of 4 mg of compound of formula (I) in hypertriglyceridemia in HIV associated lipodystrophy; format: in vivo, human; details: 4 mg oral once daily; for Homa of Insulin Resistance for C-Peptide, Mean ± SD: Visit 1 mean 1.59 ± 0.82; for Insulin (fasting), Mean ± SD: Visit 1 mean 9.21 ± 6.26; for HDL Cholesterol, Mean ± SD: Visit 1 mean 35.27 ± 7.85; for HOMA of Beta Cell Function for Insulin, Mean ± SD: Visit 1 mean 107.82 ± 52.85; for TG, Mean ± SD: Visit 1 mean 301.68 ± 86.99; for Homa of Insulin Resistance for C-Peptide, Median: Visit 1 median 1.40; for Insulin (fasting), Median: Visit 1 median 7.40; for HDL Cholesterol, Median: Visit 1 median 34.52; for HOMA of Beta Cell Function for Insulin, Median: Visit 1 median 97.25; for TG, Median: Visit 1 median 275.45
Text: After obtaining informed written consent, subjects with hypertriglyceridemia in HIV associated lipodystrophy, on treatment with HAART for at least 18 months and satisfying the inclusion and exclusion criteria were enrolled in the study.
The primary efficacy endpoint was to assess the percent change in TG levels from baseline to Week 6 and Week 12. The secondary efficacy endpoint was the assessment of LDL, VLDL, HDL, Non HDL cholesterol, Total cholesterol, Apo Al, Apo B, and C-peptide and fasting insulin for HOMA beta and HOMA IR.
For the efficacy endpoints, treatment effect was evaluated using an analysis of variance (ANOVA) model with factors for baseline and treatment. Treatment effects were estimated using the least-square means (LSM) and 95% confidence intervals (CIs) from the ANOVA model. Statistical significance was defined as a two-sided p-value <0.05. All other secondary endpoints were analyzed using appropriate statistical methods.
Subjects who satisfied all of the following criteria were eligible for enrolment in the study: • 1. Males and females aged 18-65 years. • 2. Confirmed diagnosis of HIV1 and on HAART for at least 18 months. • 3. On stable ART regimen for at least 8 weeks prior to inclusion in the study and ART regimen not expected to change in next 3 months. • 4. Subjects clinically diagnosed as HIV lipodystrophy (at least 1 moderate or severe lipodystrophy feature identified by doctor and patient, except isolated abdominal obesity) • 5. Triglycerides>200 to 500 mg %. • 6. CD4 count of>50/mm^3 • 7. Subject who had given informed consent for participation in this trial. Treatments Treatments Administered […]
The primary efficacy endpoint was to determine the percent change in TG levels from baseline to Week 6 and Week 12.
The secondary efficacy endpoint was to determine the percent change in LDL, VLDL, HDL, total cholesterol, non-HDL Cholesterol (measured value), Apo Al, and Apo B, C-peptide and fasting insulin for HOMA beta and HOMA IR levels from baseline to Week 6 and Week 12.
The primary efficacy variable was the reduction in TG at Week 6 and Week 12 of the treatment period compared with baseline. The change from baseline was determined as the difference between the means for the treatment period (Weeks 6/Weeks 12) and the baseline.
Intent-to-treat (ITT) and/or Per Protocol (PP) analysis were carried out for the study. The PP analysis was considered definitive while the ITT analysis was considered supportive during the trial analysis.
One subject identified as EHT004 in the study, a person, was reported with abnormally low levels of HDL (3.95 mg/L) and LDL (6.25 mg/L) at Visit 1. Though this subject completed the study and was assessable for efficacy, it was decided to exclude this subject from the efficacy analyses. Therefore a total of 49 subjects were analyzed for efficacy.

Dyslipidemia subjects = assay: Phase II studies in Dyslipidemia subjects; format: in vivo, human; details: 4 mg once daily
Method: This was exploratory proof of concept study designed to assess the proof of safety and efficacy in intended population. […] Based upon these observations 4 mg once daily in fasted condition was selected for present study

[2] = Phase I study, effect of food on absorption; format: in vivo, human
[3] = system: HIV-infected men with central obesity and low testosterone levels; details: transdermal gel 10 g daily, 24 weeks, cited from earlier work
[4] = Visit 3 (Week 6), p <0.0001, listed as COMPOUND OF FORMULA(I)
[5] = Visit 4 (Week 12), p <0.0001, listed as COMPOUND OF FORMULA(I)

(S)-α-Ethoxy-4-[2-[-methyl-5-[4-(methylthio)phenyl]-1H-pyrrol-1-yl]ethoxy] benzenepropanoic acid magnesium salt [compound of formula (I)]
HDL Cholesterol, Maximum ([1]; Visit 3 (Week 6)): 73.50 mg/dL
HDL Cholesterol, Minimum ([1]; Visit 3 (Week 6)): 20.13 mg/dL
HOMA of Beta Cell Function for Insulin, Maximum ([1]; Visit 3 (Week 6)): 348.00
HOMA of Beta Cell Function for Insulin, Minimum ([1]; Visit 3 (Week 6)): 34.90
Homa of Insulin Resistance for C-Peptide, Maximum ([1]; Visit 3 (Week 6)): 3.60
Homa of Insulin Resistance for C-Peptide, Minimum ([1]; Visit 3 (Week 6)): 0.90
Insulin (fasting), Maximum ([1]; Visit 3 (Week 6)): 26.82 μu/mL
Insulin (fasting), Minimum ([1]; Visit 3 (Week 6)): 2.14 μu/mL
TG, Maximum ([1]; Visit 3 (Week 6)): 631.08 mg/dL
TG, Minimum ([1]; Visit 3 (Week 6)): 42.61 mg/dL
Homa of Insulin Resistance for C-Peptide, Mean ± SD ([1]; Visit 3 (Week 6)): 1.86 ± 0.77
Insulin (fasting), Mean ± SD ([1]; Visit 3 (Week 6)): 10.42 ± 5.74 μu/mL
HDL Cholesterol, Mean ± SD ([1]; Visit 3 (Week 6)): 44.44 ± 14.04 mg/dL
HOMA of Beta Cell Function for Insulin, Mean ± SD ([1]; Visit 3 (Week 6)): 136.41 ± 76.00
TG, Mean ± SD ([1]; Visit 3 (Week 6)): 172.81 ± 106.30 mg/dL
Homa of Insulin Resistance for C-Peptide, Median ([1]; Visit 3 (Week 6)): 1.70
Insulin (fasting), Median ([1]; Visit 3 (Week 6)): 8.35 μu/mL
HDL Cholesterol, Median ([1]; Visit 3 (Week 6)): 43.36 mg/dL
HOMA of Beta Cell Function for Insulin, Median ([1]; Visit 3 (Week 6)): 116.50
TG, Median ([1]; Visit 3 (Week 6)): 147.68 mg/dL
HOMA of Beta Cell Function for Insulin, % Change from Visit 1 (LS Mean ± SE) ([1]; Visit 3 (Week 6), p 0.0010): 52.50±14.94%
HOMA of Beta Cell Function for Insulin, % Change from Visit 1 (LS Mean ± SE) ([1]; Visit 3 (Week 6), p 0.0010, listed as COMPOUND OF FORMULA(I)): 52.50 ± 14.94%
HOMA of Beta Cell Function for Insulin, Change from Visit 1 (LS Mean ± SE) ([1]; Visit 3 (Week 6), p 0.0015): 29.55 ± 8.76
HDL Cholesterol, % Change from Visit 1 (LS Mean ± SE) ([1]; Visit 3 (Week 6), p <0.0001): 29.92±5.73%
HDL Cholesterol, Change from Visit 1 (LS Mean ± SE) ([1]; Visit 3 (Week 6), p <0.0001): 9.17 ± 1.99 mg/dL
Homa of Insulin Resistance for C-Peptide, % Change from Visit 1 (LS Mean ± SE) ([1]; Visit 3 (Week 6), p <0.0001): 27.87±4.22%
Homa of Insulin Resistance for C-Peptide, Change from Visit 1 (LS Mean ± SE) ([1]; Visit 3 (Week 6), p <0.0001): 0.27 ± 0.05
Insulin (fasting), % Change from Visit 1 (LS Mean ± SE) ([1]; Visit 3 (Week 6), p <0.0001): 23.71±3.55%
Insulin (fasting), Change from Visit 1 (LS Mean ± SE) ([1]; Visit 3 (Week 6), p <0.0001): 1.21 ± 0.22 μu/mL
TG, % Change from Visit 1 (LS Mean ± SE) ([1]; Visit 3 (Week 6), p <0.0001): -40.98±4.89%
TG, Change from Visit 1 (LS Mean ± SE) ([1]; Visit 3 (Week 6), p <0.0001): -128.87 ± 14.96 mg/dL
HDL Cholesterol, % Change from Visit 1 (LS Mean ± SE) [1, 4]: 29.92 ± 5.73%
Homa of Insulin Resistance for C-Peptide, % Change from Visit 1 (LS Mean ± SE) [1, 4]: 27.87 ± 4.22%
Insulin (fasting), % Change from Visit 1 (LS Mean ± SE) [1, 4]: 23.71 ± 3.55%
TG, % Change from Visit 1 (LS Mean ± SE) [1, 4]: −40.98 ± 4.89%
HDL Cholesterol, Maximum ([1]; Visit 4 (Week 12)): 82.89 mg/dL
HDL Cholesterol, Minimum ([1]; Visit 4 (Week 12)): 17.61 mg/dL
HOMA of Beta Cell Function for Insulin, Maximum ([1]; Visit 4 (Week 12)): 273.30
HOMA of Beta Cell Function for Insulin, Minimum ([1]; Visit 4 (Week 12)): 9.80
Homa of Insulin Resistance for C-Peptide, Maximum ([1]; Visit 4 (Week 12)): 3.60
Homa of Insulin Resistance for C-Peptide, Minimum ([1]; Visit 4 (Week 12)): 1.10
Insulin (fasting), Maximum ([1]; Visit 4 (Week 12)): 24.29 μu/mL
Insulin (fasting), Minimum ([1]; Visit 4 (Week 12)): 5.93 μu/mL
TG, Maximum ([1]; Visit 4 (Week 12)): 387.69 mg/dL
TG, Minimum ([1]; Visit 4 (Week 12)): 46.88 mg/dL
Homa of Insulin Resistance for C-Peptide, Mean ± SD ([1]; Visit 4 (Week 12)): 2.15 ± 0.62
Insulin (fasting), Mean ± SD ([1]; Visit 4 (Week 12)): 11.40 ± 4.45 μu/mL
HDL Cholesterol, Mean ± SD ([1]; Visit 4 (Week 12)): 46.14 ± 14.84 mg/dL
HOMA of Beta Cell Function for Insulin, Mean ± SD ([1]; Visit 4 (Week 12)): 137.56 ± 46.11
TG, Mean ± SD ([1]; Visit 4 (Week 12)): 166.97 ± 89.17 mg/dL
Homa of Insulin Resistance for C-Peptide, Median ([1]; Visit 4 (Week 12)): 2.10
Insulin (fasting), Median ([1]; Visit 4 (Week 12)): 10.18 μu/mL
HDL Cholesterol, Median ([1]; Visit 4 (Week 12)): 47.70 mg/dL
HOMA of Beta Cell Function for Insulin, Median ([1]; Visit 4 (Week 12)): 125.60
TG, Median ([1]; Visit 4 (Week 12)): 145.91 mg/dL
HDL Cholesterol, % Change from Visit 1 (LS Mean ± SE) ([1]; Visit 4 (Week 12), p <0.0001): 34.56±6.13%
HDL Cholesterol, Change from Visit 1 (LS Mean ± SE) ([1]; Visit 4 (Week 12), p <0.0001): 10.87 ± 2.08 mg/dL
HOMA of Beta Cell Function for Insulin, % Change from Visit 1 (LS Mean ± SE) ([1]; Visit 4 (Week 12), p <0.0001): 45.64±6.22%
HOMA of Beta Cell Function for Insulin, Change from Visit 1 (LS Mean ± SE) ([1]; Visit 4 (Week 12), p <0.0001): 30.78 ± 4.25
Homa of Insulin Resistance for C-Peptide, % Change from Visit 1 (LS Mean ± SE) ([1]; Visit 4 (Week 12), p <0.0001): 58.29±5.74%
Homa of Insulin Resistance for C-Peptide, Change from Visit 1 (LS Mean ± SE) ([1]; Visit 4 (Week 12), p <0.0001): 0.56 ± 0.05
Insulin (fasting), % Change from Visit 1 (LS Mean ± SE) ([1]; Visit 4 (Week 12), p <0.0001): 47.10±4.21%
Insulin (fasting), Change from Visit 1 (LS Mean ± SE) ([1]; Visit 4 (Week 12), p <0.0001): 2.20 ± 0.21 μu/mL
TG, % Change from Visit 1 (LS Mean ± SE) ([1]; Visit 4 (Week 12), p <0.0001): -45.11±3.60%
TG, Change from Visit 1 (LS Mean ± SE) ([1]; Visit 4 (Week 12), p <0.0001): -134.71 ± 10.78 mg/dL
HDL Cholesterol, % Change from Visit 1 (LS Mean ± SE) [1, 5]: 34.56 ± 6.13%
HOMA of Beta Cell Function for Insulin, % Change from Visit 1 (LS Mean ± SE) [1, 5]: 45.64 ± 6.22%
Homa of Insulin Resistance for C-Peptide, % Change from Visit 1 (LS Mean ± SE) [1, 5]: 58.29 ± 5.74%
Insulin (fasting), % Change from Visit 1 (LS Mean ± SE) [1, 5]: 47.10 ± 4.21%
TG, % Change from Visit 1 (LS Mean ± SE) [1, 5]: −45.11 ± 3.60%
increase in the HOMA of Beta-cell function derived from C-peptide from baseline ([1]; Week 6, p 0.0104): 68.25±25.58
HOMA of insulin resistance derived from insulin, percent change from baseline ([1]; Week 6, p <0.0001): 29.10±3.94%
change in the non-HDL cholesterol levels from baseline ([1]; Week 6 and Week 12, p-values 0.3963 and 0.4646): no statistically significant change
HOMA of insulin resistance derived from insulin, percent change from baseline ([1]; Week 12, p <0.0001): 42.65±3.79%
increase in the HOMA of Beta-cell function derived from C-peptide from baseline ([1]; Week 12, p <0.0001): 71.67±16.20
efficacy (Dyslipidemia subjects): effective
tolerability (Dyslipidemia subjects): well tolerated
effect of food on absorption [2]: food significantly affects absorption

C[C@]12CC[C@H]3[C@@H](CCC4=CC(=O)CC[C@@]43C)[C@@H]1CC[C@@H]2O [testosterone]
change in VAT ([3]; placebo +2.3%, no statistically significant difference): +0.9%
change in limb fat ([3]; placebo +3.1%, statistically significant): −10.1%
change in abdominal fat ([3]; placebo +4.3%, statistically significant): −1.5%
change in trunk fat ([3]; placebo +4.6%, statistically significant): −9.9%
change in abdominal subcutaneous adipose tissue (SAT) ([3]; placebo +8.1%, statistically significant): −7.2%
